Assay results reported in ChEMBL document CHEMBL5360657, “Discovery of the TLR7/8 Antagonist MHV370 for Treatment of Systemic Autoimmune Diseases” (ACS Med Chem Lett, 2023).

Columns and labels:
[1] = target: Voltage-gated inwardly rectifying potassium channel KCNH2 (Homo sapiens, UniProt Q12809); experiment: Displacement of [3H]-dofetilite from human ERG (unknown origin); type: toxicity
[2] = Permeability of the compound by PAMPA; type: ADME
Cytochrome P450 3A4 [3] = target: T1, Cytochrome P450 3A4 (Homo sapiens, UniProt P08684); experiment: Time dependent inhibition of CYP3A4 (unknown origin) assessed as Kobs; type: ADME
Cytochrome P450 3A4 [4] = target: T1, Cytochrome P450 3A4; experiment: Inhibition of CYP3A4 (unknown origin); type: ADME
Toll-like receptor 8 = target: T2, Toll-like receptor 8 (Homo sapiens, UniProt Q9NR97); experiment: Antagonist activity at TLR8 in human PBMC cells […] assessed as reduction in IL-6 level measured after 20 hrs by AlphaLISA assay; type: cell-based
T2 sequence (Q9NR97 whole entry): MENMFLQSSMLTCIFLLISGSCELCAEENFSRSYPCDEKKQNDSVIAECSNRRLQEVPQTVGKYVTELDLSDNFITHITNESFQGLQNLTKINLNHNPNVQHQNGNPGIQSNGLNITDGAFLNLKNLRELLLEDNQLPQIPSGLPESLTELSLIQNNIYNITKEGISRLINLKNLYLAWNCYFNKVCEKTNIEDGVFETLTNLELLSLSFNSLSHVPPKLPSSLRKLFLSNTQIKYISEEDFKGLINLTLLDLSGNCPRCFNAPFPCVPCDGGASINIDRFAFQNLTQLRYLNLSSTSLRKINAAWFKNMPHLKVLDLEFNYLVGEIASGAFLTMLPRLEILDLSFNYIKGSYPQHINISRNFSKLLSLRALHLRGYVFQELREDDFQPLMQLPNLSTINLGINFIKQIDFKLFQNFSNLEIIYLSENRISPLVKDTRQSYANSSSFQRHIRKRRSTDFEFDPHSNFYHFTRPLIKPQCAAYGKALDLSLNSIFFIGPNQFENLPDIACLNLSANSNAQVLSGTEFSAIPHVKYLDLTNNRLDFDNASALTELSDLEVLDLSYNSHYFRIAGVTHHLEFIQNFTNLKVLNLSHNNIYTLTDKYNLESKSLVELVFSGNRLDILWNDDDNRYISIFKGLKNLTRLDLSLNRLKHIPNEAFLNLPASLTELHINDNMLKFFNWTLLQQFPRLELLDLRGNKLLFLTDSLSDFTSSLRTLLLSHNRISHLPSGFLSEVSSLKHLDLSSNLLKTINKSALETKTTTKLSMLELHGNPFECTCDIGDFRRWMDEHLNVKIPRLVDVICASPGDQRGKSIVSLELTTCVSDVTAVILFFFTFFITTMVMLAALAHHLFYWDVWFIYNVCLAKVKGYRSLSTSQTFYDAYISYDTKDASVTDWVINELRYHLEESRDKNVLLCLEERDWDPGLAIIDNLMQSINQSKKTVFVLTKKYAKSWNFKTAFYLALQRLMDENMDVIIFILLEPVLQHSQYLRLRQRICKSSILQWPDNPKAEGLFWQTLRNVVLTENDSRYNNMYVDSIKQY

[5] = Metabolic stability in mouse liver microsomes assessed as intrinsic clearance; type: ADME, Microsome; conditions: read-out: CLH
[6] = Metabolic stability in human liver microsomes assessed as intrinsic clearance; type: ADME, Microsome; conditions: read-out: CLH
[7] = Metabolic stability in rat liver microsomes assessed as intrinsic clearance; type: ADME, Microsome; conditions: read-out: CLH
Toll-like receptor 9 = target: T3, Toll-like receptor 9 (Homo sapiens, UniProt Q9NR96); experiment: Antagonist activity at TLR9 in human PBMC cells assessed as reduction in IFN alpha measured after 20 hrs by AlphaLISA assay; type: cell-based
T3 sequence (Q9NR96 whole entry): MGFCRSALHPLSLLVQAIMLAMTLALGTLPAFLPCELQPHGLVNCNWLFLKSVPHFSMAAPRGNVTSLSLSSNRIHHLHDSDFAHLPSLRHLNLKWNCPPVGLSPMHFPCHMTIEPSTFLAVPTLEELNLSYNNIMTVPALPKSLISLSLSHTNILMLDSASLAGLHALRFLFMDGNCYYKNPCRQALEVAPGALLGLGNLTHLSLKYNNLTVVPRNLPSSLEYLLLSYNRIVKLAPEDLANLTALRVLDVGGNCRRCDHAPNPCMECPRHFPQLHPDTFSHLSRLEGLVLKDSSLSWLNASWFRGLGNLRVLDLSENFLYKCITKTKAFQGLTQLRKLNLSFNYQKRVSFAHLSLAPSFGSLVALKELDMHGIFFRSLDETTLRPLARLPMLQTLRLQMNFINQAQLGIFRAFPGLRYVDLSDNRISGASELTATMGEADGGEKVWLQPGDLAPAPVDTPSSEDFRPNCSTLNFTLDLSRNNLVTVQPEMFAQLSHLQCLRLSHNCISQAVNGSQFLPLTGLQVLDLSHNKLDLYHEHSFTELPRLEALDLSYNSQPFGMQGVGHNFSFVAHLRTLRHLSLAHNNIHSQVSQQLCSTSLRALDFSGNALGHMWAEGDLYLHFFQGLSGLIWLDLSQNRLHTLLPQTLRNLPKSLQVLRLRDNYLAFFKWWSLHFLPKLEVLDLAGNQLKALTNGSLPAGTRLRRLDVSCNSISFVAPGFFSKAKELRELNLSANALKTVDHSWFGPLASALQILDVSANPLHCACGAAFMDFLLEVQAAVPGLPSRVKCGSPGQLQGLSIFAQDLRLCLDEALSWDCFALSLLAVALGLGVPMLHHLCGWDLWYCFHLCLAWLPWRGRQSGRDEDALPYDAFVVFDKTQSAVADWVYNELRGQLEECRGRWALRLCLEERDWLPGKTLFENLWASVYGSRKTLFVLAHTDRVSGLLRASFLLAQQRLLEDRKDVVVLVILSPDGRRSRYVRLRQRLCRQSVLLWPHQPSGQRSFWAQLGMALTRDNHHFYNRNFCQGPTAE

T1 sequence (P08684 whole entry): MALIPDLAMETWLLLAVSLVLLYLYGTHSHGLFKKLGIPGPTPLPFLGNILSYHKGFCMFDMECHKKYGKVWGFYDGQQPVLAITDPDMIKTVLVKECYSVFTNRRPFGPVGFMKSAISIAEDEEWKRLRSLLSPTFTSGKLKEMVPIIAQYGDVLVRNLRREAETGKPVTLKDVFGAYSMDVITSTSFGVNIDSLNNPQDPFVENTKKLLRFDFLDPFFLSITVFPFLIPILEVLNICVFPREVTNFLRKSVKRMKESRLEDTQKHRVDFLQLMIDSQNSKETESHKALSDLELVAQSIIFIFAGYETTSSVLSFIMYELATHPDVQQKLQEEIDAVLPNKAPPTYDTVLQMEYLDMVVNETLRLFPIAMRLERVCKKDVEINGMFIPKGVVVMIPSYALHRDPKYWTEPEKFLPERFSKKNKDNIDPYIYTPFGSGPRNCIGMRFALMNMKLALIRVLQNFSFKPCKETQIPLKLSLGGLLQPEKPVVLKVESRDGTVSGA
Chain of Voltage-gated inwardly rectifying potassium channel KCNH2 (Q12809 whole entry): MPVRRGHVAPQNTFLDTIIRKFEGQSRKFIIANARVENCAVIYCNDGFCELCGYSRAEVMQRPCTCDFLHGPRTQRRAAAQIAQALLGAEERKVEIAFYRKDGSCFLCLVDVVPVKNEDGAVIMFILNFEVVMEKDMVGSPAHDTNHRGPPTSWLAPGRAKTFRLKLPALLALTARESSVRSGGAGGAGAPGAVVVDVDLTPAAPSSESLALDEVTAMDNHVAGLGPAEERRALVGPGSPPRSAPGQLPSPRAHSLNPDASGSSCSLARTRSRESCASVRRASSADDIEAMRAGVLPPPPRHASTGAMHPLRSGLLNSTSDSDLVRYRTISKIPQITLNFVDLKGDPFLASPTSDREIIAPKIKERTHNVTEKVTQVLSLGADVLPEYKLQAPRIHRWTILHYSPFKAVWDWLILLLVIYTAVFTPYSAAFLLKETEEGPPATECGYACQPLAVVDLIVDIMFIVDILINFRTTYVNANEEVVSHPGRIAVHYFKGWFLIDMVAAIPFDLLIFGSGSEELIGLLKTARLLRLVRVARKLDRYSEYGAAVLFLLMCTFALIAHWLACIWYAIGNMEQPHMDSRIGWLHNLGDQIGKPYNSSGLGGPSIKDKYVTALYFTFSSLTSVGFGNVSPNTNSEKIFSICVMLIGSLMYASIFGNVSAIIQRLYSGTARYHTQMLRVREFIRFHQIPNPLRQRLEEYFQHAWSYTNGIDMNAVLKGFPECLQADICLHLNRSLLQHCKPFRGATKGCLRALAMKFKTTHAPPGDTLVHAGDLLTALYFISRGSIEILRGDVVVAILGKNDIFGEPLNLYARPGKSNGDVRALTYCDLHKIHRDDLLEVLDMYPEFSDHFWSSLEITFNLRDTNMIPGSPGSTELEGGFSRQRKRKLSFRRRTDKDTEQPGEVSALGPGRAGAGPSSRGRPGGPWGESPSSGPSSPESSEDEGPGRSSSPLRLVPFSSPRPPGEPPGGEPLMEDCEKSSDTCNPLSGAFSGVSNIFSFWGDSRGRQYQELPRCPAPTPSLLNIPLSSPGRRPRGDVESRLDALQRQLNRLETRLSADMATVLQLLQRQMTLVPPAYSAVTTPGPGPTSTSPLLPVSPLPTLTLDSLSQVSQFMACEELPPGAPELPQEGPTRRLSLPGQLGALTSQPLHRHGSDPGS

| log(permeability) [2] | Kobs (Cytochrome P450 3A4 [3]) [min⁻¹] | IC50 (Cytochrome P450 3A4 [4]) [nM] | IC50 (Toll-like receptor 8) [nM] | microsomal CLint [5] [µL/min/mg] | microsomal CLint [6] [µL/min/mg] | microsomal CLint [7] [µL/min/mg] | IC50 (Toll-like receptor 9) [nM] | Structure (SMILES) | IC50 [1] [nM] |
| --- | --- | --- | --- | --- | --- | --- | --- | --- | --- |
| -5.3 | 0.01 | > 50000 | 44 | 96 | 35 | < 15 | 810 | CCNCC(=O)NC12CCC(Cn3nc(C)c4c3CCN(c3cc(C)nc5c3cnn5C)C4)(CC1)CC2 | > 30000 |
| -5.1 | 0.002 | > 50000 | 210 | 15 | 19 | 36 | 580 | Cc1cc(N2CCc3c(c(C)nn3CC34CCC(N)(CC3)CC4)C2)c2cnn(C)c2n1 | 29000 |

| Structure (SMILES) | log(permeability) [2] | Kobs (Cytochrome P450 3A4 [3]) [min⁻¹] | IC50 (Cytochrome P450 3A4 [4]) [nM] | IC50 (Toll-like receptor 8) [nM] | microsomal CLint [5] [µL/min/mg] | microsomal CLint [6] [µL/min/mg] | microsomal CLint [7] [µL/min/mg] | IC50 (Toll-like receptor 9) [nM] | IC50 [1] [nM] |
| --- | --- | --- | --- | --- | --- | --- | --- | --- | --- |
| Cc1cc(N2CCc3c(c(C)nn3CC34CCC(NC(=O)[C@@H]5COCCN5)(CC3)CC4)C2)c2cnn(C)c2n1 [MHV-370] | -5.2 | 0.006 | > 50000 | 68 | 52 | 19 | 17 | 1000 | > 30000 |
